Legend:
[1] = molecular target: T1, D(2) dopamine receptor (Homo sapiens, UniProt P14416); assay: biochemical
[2] = molecular target: D(1A) dopamine receptor (Bos taurus, UniProt Q95136)
[3] = molecular target: T2, D(3) dopamine receptor (Homo sapiens, UniProt P35462); assay: biochemical
[4] = molecular target: T1, D(2) dopamine receptor; assay: biochemical; remark: listed apart in the source
[5] = molecular target: T3, D(4) dopamine receptor (Homo sapiens, UniProt P21917)
T3 sequence (P21917 whole entry): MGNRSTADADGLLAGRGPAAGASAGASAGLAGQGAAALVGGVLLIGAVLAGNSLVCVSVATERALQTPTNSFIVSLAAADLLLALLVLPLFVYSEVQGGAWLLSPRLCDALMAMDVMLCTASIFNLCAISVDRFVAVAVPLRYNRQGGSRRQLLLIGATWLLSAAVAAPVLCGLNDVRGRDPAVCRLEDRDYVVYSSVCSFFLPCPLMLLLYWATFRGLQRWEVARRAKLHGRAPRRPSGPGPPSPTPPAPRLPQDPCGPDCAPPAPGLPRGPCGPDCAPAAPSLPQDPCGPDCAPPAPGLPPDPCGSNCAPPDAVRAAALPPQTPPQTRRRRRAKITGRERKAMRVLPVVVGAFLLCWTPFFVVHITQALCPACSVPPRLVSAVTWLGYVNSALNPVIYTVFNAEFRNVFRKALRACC

[6] = molecular target: T2, D(3) dopamine receptor; details: cho
[7] = molecular target: T1, D(2) dopamine receptor; assay: Ability to displace [3H]spiperone [0.5 nM (Kd=0.2-0.45 nM)] from human cloned dopamine receptor D2S expressed in CHO cells at 0.5 nM concentration; assay type: cell-based

D(1A) dopamine receptor, sequence (Q95136 whole entry): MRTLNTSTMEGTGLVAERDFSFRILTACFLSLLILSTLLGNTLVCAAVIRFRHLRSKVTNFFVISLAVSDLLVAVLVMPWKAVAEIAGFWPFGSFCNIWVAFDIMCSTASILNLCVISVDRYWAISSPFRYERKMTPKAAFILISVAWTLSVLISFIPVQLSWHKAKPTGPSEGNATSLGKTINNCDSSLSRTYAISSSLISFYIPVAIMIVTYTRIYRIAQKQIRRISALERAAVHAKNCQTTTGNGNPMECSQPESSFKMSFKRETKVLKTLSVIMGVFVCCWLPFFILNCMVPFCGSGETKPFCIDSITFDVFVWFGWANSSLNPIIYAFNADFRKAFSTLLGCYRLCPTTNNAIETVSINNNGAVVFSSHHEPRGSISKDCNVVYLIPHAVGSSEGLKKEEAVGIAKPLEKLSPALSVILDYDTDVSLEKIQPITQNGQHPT
T1 sequence (P14416 whole entry): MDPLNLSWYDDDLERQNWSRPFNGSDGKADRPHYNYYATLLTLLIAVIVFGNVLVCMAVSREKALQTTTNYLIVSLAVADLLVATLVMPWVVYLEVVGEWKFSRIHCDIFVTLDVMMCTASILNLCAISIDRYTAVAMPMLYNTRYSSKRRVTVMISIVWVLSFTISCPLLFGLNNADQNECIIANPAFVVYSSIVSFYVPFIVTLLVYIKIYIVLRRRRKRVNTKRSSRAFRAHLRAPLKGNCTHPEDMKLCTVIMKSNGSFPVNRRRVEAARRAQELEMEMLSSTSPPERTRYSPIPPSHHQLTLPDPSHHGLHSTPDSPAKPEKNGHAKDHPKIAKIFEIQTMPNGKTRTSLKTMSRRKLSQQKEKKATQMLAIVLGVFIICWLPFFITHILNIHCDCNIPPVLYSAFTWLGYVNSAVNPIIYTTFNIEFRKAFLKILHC
T2 sequence (P35462 whole entry): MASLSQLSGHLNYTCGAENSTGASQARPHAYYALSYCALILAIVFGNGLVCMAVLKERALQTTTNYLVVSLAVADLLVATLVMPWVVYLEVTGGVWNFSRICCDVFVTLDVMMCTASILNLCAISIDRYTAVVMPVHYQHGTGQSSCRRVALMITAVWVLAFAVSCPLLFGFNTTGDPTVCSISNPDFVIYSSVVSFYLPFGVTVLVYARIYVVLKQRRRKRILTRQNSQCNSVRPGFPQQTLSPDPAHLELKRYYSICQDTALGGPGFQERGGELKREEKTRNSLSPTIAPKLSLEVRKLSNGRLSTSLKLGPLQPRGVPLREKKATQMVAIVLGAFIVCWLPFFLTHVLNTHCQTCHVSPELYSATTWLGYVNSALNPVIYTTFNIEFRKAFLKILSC

Ki [1] [nM]	Ki [2] [µM]	Ki [3] [nM]	Ki [4] [nM]	Ki [5] [nM]	Ki [6] [nM]	Ki [7] [nM]	Compound
7700	3.3		5500	1500	1000		COc1c(C(=O)N[C@@H]2CCN(Cc3ccccc3)C2)cc(C#Cc2ccccc2)c2ccccc12 (stereo in doubt)
15	5.3	27	11	4.3			CNc1cc(OC)c(C(=O)N[C@H]2CN(Cc3ccccc3)C[C@@H]2C)cc1Cl (stereo in doubt)
7900	13	8700	4200	530			COc1cc(N)c(Cl)cc1C(=O)N[C@H]1CCCN(Cc2ccccc2)C1 (stereo in doubt)
2500	2.1	1000	2800	610			COc1c(C(=O)NCC[C@@H]2CCN(Cc3ccccc3)C2)cc(Br)c2ccccc12 (stereo in doubt)
1300	2.9	1000	870	78			COc1c(C(=O)NC[C@@H]2CCN(Cc3ccccc3)C2)cc(Br)c2ccccc12 (stereo in doubt)
470	19	2200	340	35			COc1cc(N)c(Cl)cc1C(=O)N[C@H]1CCN(Cc2ccccc2)C[C@@H]1C (stereo in doubt; 3a)
54	8.2	510	39	4.7			CNc1cc(OC)c(C(=O)N[C@H]2CCN(Cc3ccccc3)C[C@@H]2C)cc1Cl (stereo in doubt; 3b)
21	12	220	19	0.77			CNc1cc(OC)c(C(=O)N[C@H]2CN(Cc3ccccc3)C[C@@H]2C)cc1Cl (stereo in doubt; 3c)
1000	8.4	740	700	17			COc1c(C(=O)N[C@H]2CN(Cc3ccccc3)C[C@@H]2C)cc(Br)c2ccccc12 (stereo in doubt; 3d)
200	4.7	390	135	2.7			COc1c(C(=O)N[C@H]2CN(Cc3ccccc3)C[C@H]2C)cc(Br)c2ccccc12 (stereo in doubt; 3f)
2000	1.7	580	1900	500			COc1c(C(=O)NCC[C@@H]2CCN(Cc3ccccc3)C2)cc(Br)c2ccccc12 (stereo in doubt; 3l)
1600	17	2900	1100	200			COc1cc(N)c(Cl)cc1C(=O)N[C@H]1CCCN(Cc2ccccc2)C1 (stereo in doubt; 5a)

Second part, the molecule before the results:

Compound	Ki [1] [nM]	Ki [2] [µM]	Ki [3] [nM]	Ki [4] [nM]	Ki [5] [nM]	Ki [6] [nM]	Ki [7] [nM]
CNc1cc(OC)c(C(=O)NC2CCN(Cc3ccccc3)CC2)cc1Cl	24	6.8	160	15	8.3		
CNc1cc(OC)c(C(=O)N[C@H]2CCN(Cc3ccccc3)C[C@@H]2C)cc1Cl (stereo in doubt)	8	4.4	13	6.4	1.6		
C#Cc1cc(C(=O)N[C@@H]2CCN(Cc3ccccc3)C2)c(OC)c2ccccc12 (stereo in doubt)	500	6.1	79	250	7		
COc1c(C(=O)N[C@@H]2CCN(Cc3ccccc3)C2)cc(Br)c2ccccc12 (stereo in doubt)	150	7.4	84	150	21		
COc1c(C(=O)N[C@H]2CN(Cc3ccccc3)C[C@H]2C)cc(Br)c2ccccc12 (stereo in doubt)	290	4	130		27		170
COc1cc(N)c(Cl)cc1C(=O)N[C@H]1CCN(Cc2ccccc2)C[C@@H]1C (stereo in doubt)	8.6	7.1	20	7.4	7.4		
COc1c(C(=O)N[C@@H]2CCN(Cc3ccccc3)C2)cc(I)c2ccccc12 (stereo in doubt)	190	6.1	33	70	3.3		
CNc1cc(OC)c(C(=O)N[C@H]2CN(Cc3ccccc3)C[C@H]2C)cc1Cl (stereo in doubt)	2.3	4.7	1.8	2	0.84		
COc1c(C(=O)N[C@H]2CN(Cc3ccccc3)C[C@@H]2C)cc(Br)c2ccccc12 (stereo in doubt)	490	4.2	140	260	59		
CNc1cc(OC)c(C(=O)N[C@H]2CCCN(Cc3ccccc3)C2)cc1Cl (stereo in doubt)	250	5.6	1500	210	64		
CNc1cc(OC)c(C(=O)N[C@H]2CN(Cc3ccccc3)C[C@H]2C)cc1Cl (stereo in doubt; 3e)	3.7	4.1	100	3	0.23		
COc1c(C(=O)N[C@@H]2CCN(Cc3ccccc3)C2)cc(Br)c2ccccc12 (stereo in doubt; 3g)	180	7.2	250		5		130
COc1c(C(=O)N[C@@H]2CCN(Cc3ccccc3)C2)cc(I)c2ccccc12 (stereo in doubt; 3h)	60	3	34	23	1.2		
C#Cc1cc(C(=O)N[C@@H]2CCN(Cc3ccccc3)C2)c(OC)c2ccccc12 (stereo in doubt; 3i)	190	3.3	86	82	2.5		
COc1c(C(=O)N[C@@H]2CCN(Cc3ccccc3)C2)cc(C#Cc2ccccc2)c2ccccc12 (stereo in doubt; 3j)	6400	2.8	1000	4000	500		
COc1c(C(=O)NC[C@@H]2CCN(Cc3ccccc3)C2)cc(Br)c2ccccc12 (stereo in doubt; 3k)	640	2.1	410	420	130		
CNc1cc(OC)c(C(=O)N[C@H]2CCCN(Cc3ccccc3)C2)cc1Cl (stereo in doubt; 5b)	170	10	560	130	25		

— ChEMBL document CHEMBL1136241 (Bioorg Med Chem Lett, 2003)
